18 molecules from patent publication US8394967B2, “Antioxidant inflammation modulators: C-17 homologated oleanolic acid derivatives” (Reata Pharmaceuticals, Inc., priority 2008, dated 2013) can be followed below.

Like-named read-outs stand apart in the source and are kept apart here.

One test has as its system RAW264.7 macrophages. Nature of the test: Cell viability of RAW264.7 macrophages (WST-1 reagent). The format is cell-based, mouse. The following applies: read-out: RAW264.7 (20 ng/ml IFNγ) WST-1 IC50. As to the method:
(§1) FIGS. 1-4, 6 and 8. Inhibition of NO Production. RAW264.7 macrophages were pre-treated with DMSO or drugs at various concentrations (nM) for 2 hours, then treated with 20 ng/ml IFNγ for 24 hours. NO concentration in media was determined using a Griess reagent system; cell viability was determined using WST-1 reagent.
(§2) Nitric Oxide production and cell viability. RAW264.7 macrophages were pre-treated with DMSO or drugs for 2 hours, then treated with recombinant mouse IFNγ (Sigma) for 24 hours. NO concentration in media was determined using the Griess reagent system (Promega). Cell viability was determined using WST-1 reagent (Roche).
(Formazan colour is commonly taken as a measure of viable cells.)

For test [1], the system named is NO production in RAW264.7 macrophages. Nature of the test: Inhibition of NO production in IFNγ-treated RAW264.7 macrophages (Griess reagent). The class given is cell-based, mouse. The note with it: then 20 ng/ml IFNγ for 24 hours. The procedure: as §1, §2
Where [2] appears, read: Mus musculus, RAW264.7, 24 h, cell viability, RAW264.7, 20 ng/ml IFNγ 24 hours, WST-1 reagent.
The mark [3] stands for this setting: Mus musculus, RAW264.7, RAW264.7 macrophages pre-treated 2 hours.
Where [4] appears, read: cell viability, RAW264.7, 20 ng/ml IFNγ 24 hours, WST-1 reagent.
Where [5] appears, read: RAW264.7 macrophages pre-treated 2 hours.

As for `CC1(C)CC[C@]2(CC(=O)O)CC[C@]3(C)[C@H](C(=O)C=C4[C@@]5(C)C=C(C#N)C(=O)C(C)(C)[C@@H]5CC[C@]43C)[C@@H]2C1` [Compound 402-54, 2-((4aR,6aR,6bS,8aR,12aS,14aR,14bS)-11-cyano-2,2,6a,6b,9,9,12a-heptamethyl-10,14-dioxo-1,2,3,4,4a,5,6,6a,6b,7,8,8a,9,10,12a,14,14a,14b-octadecahydropicen-4a-yl)acetic acid], the IC50 is more than 200 nM in the test on RAW264.7 macrophages (setting [2]) and approximately 6 nM in test [1] (setting [3]). Turning to `C#C[C@]12CCC(C)(C)C[C@H]1[C@H]1C(=O)C[C@@H]3[C@@]4(C)C=C(C#N)C(=O)C(C)(C)[C@@H]4CC[C@@]3(C)[C@]1(C)CC2` [Compound 63303, (4aR,6aR,6bR,8aS,12aS,12bR,14aR,14bR)-8a-ethynyl-4,4,6a,6b,11,11,14b-heptamethyl-3,13-dioxo-3,4,4a,5,6,6a,6b,7,8,8a,9,10,11,12,12a,12b,13,14,14a,14b-icosahydropicene-2-carbonitrile], the IC50 in the test on RAW264.7 macrophages (setting [2]) was approximately 150 nM; in test [1] (setting [3]) it was approximately 18 nM. As to `CC1(C)CC[C@]2(C(O)CBr)CC[C@]3(C)[C@H](C(=O)C[C@@H]4[C@@]5(C)C=C(C#N)C(=O)C(C)(C)[C@@H]5CC[C@]43C)[C@@H]2C1` (single isomer, unassigned) [Compound 63283], the IC50 in the test on RAW264.7 macrophages (setting [4]) was approximately 200 nM; in test [1] (setting [5]), approximately 20 nM. Regarding `CC1(C)CC[C@]2([C@@H](O)CCl)CC[C@]3(C)[C@H](C(=O)C[C@@H]4[C@@]5(C)C=C(C#N)C(=O)C(C)(C)[C@@H]5CC[C@]43C)[C@@H]2C1` (single isomer, unassigned) [Compound 63282], the IC50 with RAW264.7 macrophages (setting [2]) is more than 200 nM; in test [1] (setting [3]), approximately 25 nM. In the case of `CC1(C)CC[C@]2(C3CO3)CC[C@]3(C)[C@H](C(=O)C[C@@H]4[C@@]5(C)C=C(C#N)C(=O)C(C)(C)[C@@H]5CC[C@]43C)[C@@H]2C1` (single isomer, unassigned) [Compound 63286], the IC50 with RAW264.7 macrophages (setting [4]) was more than 200 nM; in test [1] (setting [5]), approximately 13 nM. As to `CC1(C)CC[C@]2(CS(=O)(=O)c3ccccc3)CC[C@]3(C)[C@H](C(=O)C[C@@H]4[C@@]5(C)C=C(C#N)C(=O)C(C)(C)[C@@H]5CC[C@]43C)[C@@H]2C1` [Compound 63266, (4aR,6aR,6bR,8aS,12aS,12bR,14aR,14bR)-4,4,6a,6b,11,11,14b-heptamethyl-3,13-dioxo-8a-(phenylsulfonylmethyl)-3,4,4a,5,6,6a,6b,7,8,8a,9,10,11,12,12a,12b,13,14,14a,14b-icosahydropicene-2-carbonitrile], the IC50 with RAW264.7 macrophages (setting [2]) was more than 200 nM; in test [1] (setting [3]) it was approximately 30 nM.

As for `Cn1nnc(CNC[C@]23CCC(C)(C)C[C@H]2[C@H]2C(=O)C[C@@H]4[C@@]5(C)C=C(C#N)C(=O)C(C)(C)[C@@H]5CC[C@@]4(C)[C@]2(C)CC3)n1` [Compound 63233, (4aR,6aR,6bR,8aS,12aS,12bR,14aR,14bR)-4,4,6a,6b,11,11,14b-heptamethyl-8a-(((2-methyl-2H-tetrazol-5-yl)methylamino)methyl)-3,13-dioxo-3,4,4a,5,6,6a,6b,7,8,8a,9,10,11,12,12a,12b,13,14,14a,14b-icosahydropicene-2-carbonitrile], the IC50 in the test with RAW264.7 macrophages (Mus musculus, RAW264.7, 24 h) is more than 200 nM. Take `C=C[C@]12CCC(C)(C)C[C@H]1[C@H]1C(=O)CC3[C@@]4(C)C=C(C#N)C(=O)C(C)(C)C4CC[C@@]3(C)[C@]1(C)CC2` (stereo partly drawn) [Compound 63213, (6aR,6bR,8aR,12aS,12bR,14bR)-4,4,6a,6b,11,11,14b-heptamethyl-3,13-dioxo-8a-vinyl-3,4,4a,5,6,6a,6b,7,8,8a,9,10,11,12,12a,12b,13,14,14a,14b-icosahydropicene-2-carbonitrile]: the IC50 in the test on RAW264.7 macrophages (setting [2]) is approximately 200 nM; in test [1] (setting [3]) it was approximately 40 nM. For `CC1(C)CC[C@]2(COC(=O)C(F)(F)F)CC[C@]3(C)[C@H](C(=O)C[C@@H]4[C@@]5(C)C=C(C#N)C(=O)C(C)(C)[C@@H]5CC[C@]43C)[C@@H]2C1` [Compound 63294, ((4aS,6aR,6bR,8aR,12aR,12bR,14aR,14bS)-11-cyano-2,2,6a,6b,9,9,12a-heptamethyl-10,14-dioxo-1,2,3,4,4a,5,6,6a,6b,7,8,8a,9,10,12a,12b,13,14,14a,14b-icosahydropicen-4a-yl)methyl 2,2,2-trifluoroacetate] the same measures were more than 200 nM and approximately 9 nM. Turning to `CC1(C)CC[C@]2(COC(=O)c3ccccc3)CC[C@]3(C)[C@H](C(=O)C[C@@H]4[C@@]5(C)C=C(C#N)C(=O)C(C)(C)[C@@H]5CC[C@]43C)[C@@H]2C1` [Compound 63298, ((4aS,6aR,6bR,8aR,12aR,12bR,14aR,14bS)-11-cyano-2,2,6a,6b,9,9,12a-heptamethyl-10,14-dioxo-1,2,3,4,4a,5,6,6a,6b,7,8,8a,9,10,12a,12b,13,14,14a,14b-icosahydropicen-4a-yl)methyl benzoate], the IC50 was approximately 200 nM with RAW264.7 macrophages (setting [2]) and approximately 80 nM in test [1] (setting [3]). Turning to `CC1(C)CC[C@]2(CO)CC[C@]3(C)[C@H](C(=O)CC4[C@@]5(C)C=C(C#N)C(=O)C(C)(C)[C@@H]5CC[C@]43C)[C@@H]2C1` (stereo partly drawn) [Compound 402-63, (4aR,6aR,6bR,8aS,12aS,12bR,14bR)-8a-(hydroxymethyl)-4,4,6a,6b,11,11,14b-heptamethyl-3,13-dioxo-3,4,4a,5,6,6a,6b,7,8,8a,9,10,11,12,12a,12b,13,14,14a,14b-icosahydropicene-2-carbonitrile], the IC50 in the test with RAW264.7 macrophages (setting [2]) is more than 200 nM; in test [1] (setting [3]) it was approximately 9 nM. For the molecule `CC1(C)CC[C@]2(CN3C(=O)c4ccccc4C3=O)CC[C@]3(C)[C@H](C(=O)C[C@@H]4[C@@]5(C)C=C(C#N)C(=O)C(C)(C)[C@@H]5CC[C@]43C)[C@@H]2C1` [Compound 63276, (4aR,6aR,6bR,8aS,12aS,12bR,14aR,14bR)-8a-((1,3-dioxoisoindolin-2-yl)methyl)-4,4,6a,6b,11,11,14b-heptamethyl-3,13-dioxo-3,4,4a,5,6,6a,6b,7,8,8a,9,10,11,12,12a,12b,13,14,14a,14b-icosahydropicene-2-carbonitrile], the IC50 in the test with RAW264.7 macrophages (setting [2]) was approximately 150 nM; in test [1] (setting [3]) it was approximately 50 nM. `CC1(C)CC[C@]2(CC(=O)O)CC[C@]3(C)[C@H](C(=O)C[C@@H]4[C@@]5(C)C=C(C#N)C(=O)C(C)(C)[C@@H]5CC[C@]43C)[C@@H]2C1` [Compound 63332, 2-((4aR,6aR,6bR,8aR,12aR,12bR,14aR,14bS)-11-cyano-2,2,6a,6b,9,9,12a-heptamethyl-10,14-dioxo-1,2,3,4,4a,5,6,6a,6b,7,8,8a,9,10,12a,12b,13,14,14a,14b-icosahydropicen-4a-yl)acetic acid]: the IC50 in test [1] (setting [3]) is approximately 50 nM. Regarding `COC(=O)C[C@]12CCC(C)(C)C[C@H]1[C@H]1C(=O)C=C3[C@@]4(C)C=C(C#N)C(=O)C(C)(C)[C@@H]4CC[C@@]3(C)[C@]1(C)CC2` [Compound 402-50, methyl-2-((4aR,6aR,6bS,8aR,12aS,14aR,14bS)-11-cyano-2,2,6a,6b,9,9,12a-heptamethyl-10,14-dioxo-1,2,3,4,4a,5,6,6a,6b,7,8,8a,9,10,12a,14,14a,14b-octadecahydropicen-4a-yl)acetate], the IC50 in the test with RAW264.7 macrophages (setting [2]) was 75 nM; in test [1] (setting [3]), approximately 2.5 nM. `CC1(C)CC[C@]2(CNCC(F)(F)F)CC[C@]3(C)[C@H](C(=O)C[C@@H]4[C@@]5(C)C=C(C#N)C(=O)C(C)(C)[C@@H]5CC[C@]43C)[C@@H]2C1` [Compound 63273, (4aR,6aR,6bR,8aS,12aS,12bR,14aR,14bR)-4,4,6a,6b,11,11,14b-heptamethyl-3,13-dioxo-8a-((2,2,2-trifluoroethylamino)methyl)-3,4,4a,5,6,6a,6b,7,8,8a,9,10,11,12,12a,12b,13,14,14a,14b-icosahydropicene-2-carbonitrile]: the IC50 in the test with RAW264.7 macrophages (setting [2]) is approximately 200 nM; in test [1] (setting [3]), approximately 80 nM. On to `CC1(C)CC[C@]2(C[S+]([O-])c3ccccc3)CC[C@]3(C)[C@H](C(=O)C[C@@H]4[C@@]5(C)C=C(C#N)C(=O)C(C)(C)[C@@H]5CC[C@]43C)[C@@H]2C1` (stereo partly drawn) [Compound 63255, (4aR,6aR,6bR,8aS,12aS,12bR,14aR,14bR)-4,4,6a,6b,11,11,14b-heptamethyl-3,13-dioxo-8a-(phenylsulfinylmethyl)-3,4,4a,5,6,6a,6b,7,8,8a,9,10,11,12,12a,12b,13,14,14a,14b-icosahydropicene-2-carbonitrile], for which the IC50 in the test on RAW264.7 macrophages (setting [2]) was more than 200 nM; in test [1] (setting [3]), approximately 50 nM. `CC1(C)CC[C@]2(C(O)CBr)CC[C@]3(C)[C@H](C(=O)C[C@@H]4[C@@]5(C)C=C(C#N)C(=O)C(C)(C)[C@@H]5CC[C@]43C)[C@@H]2C1` (single isomer, unassigned) [Compound 63284]: the IC50 in the test with RAW264.7 macrophages (setting [4]) was approximately 200 nM; in test [1] (setting [5]) it was approximately 15 nM. As for `CCOP(=O)(OCC)OC[C@]12CCC(C)(C)C[C@H]1[C@H]1C(=O)C[C@@H]3[C@@]4(C)C=C(C#N)C(=O)C(C)(C)[C@@H]4CC[C@@]3(C)[C@]1(C)CC2` [Compound 63239, ((4aS,6aR,6bR,8aR,12aR,12bR,14aR,14bS)-11-cyano-2,2,6a,6b,9,9,12a-heptamethyl-10,14-dioxo-1,2,3,4,4a,5,6,6a,6b,7,8,8a,9,10,12a,12b,13,14,14a,14b-icosahydropicen-4a-yl)methyl diethyl phosphate], the IC50 in the test with RAW264.7 macrophages (Mus musculus, RAW264.7, 24 h) is more than 200 nM.
